Data set [1] can be described thus: Pharmacokinetic assessments (plasma concentrations, erdafitinib exposure; CYP2C9*3/*3 genotype). The class given is in vivo, human. Conditions: subjects with the CYP2C9*3/*3 genotype; 'may increase'. An excerpt: Therefore, increased adverse reactions are monitored in subjects who are known or suspected to have CYP2C9*3/*3 genotype.
[2] abbreviates: 144 treated BPC subjects (safety analysis set).
Where [3] appears, read: Broad Panel Cohort, 178 treated subjects, % of subjects, AE outcome of Fatal.

Read-outs that look alike come from different tables or passages of the source.

`COc1cc(OC)cc(N(CCNC(C)C)c2ccc3ncc(-c4cnn(C)c4)nc3c2)c1` [erdafitinib, N-(3,5-dimethoxy-phenyl)-N′-(1-methylethyl)-N-[3-(1-methyl-1H-pyrazol-4-yl)quinoxalin-6-yl]ethane-1,2-diamine]: the “TEAEs leading to death” value (13 patients, BPC n=178, IA3) was determined as 7.3%. Further, under setting [2], the “Drug-related serious TEAEs” value came to 6.3%, the “diarrhea (TEAE)” value is 54.2%, the “drug related TEAEs leading to death” value is recorded as “no drug related TEAEs leading to death” and the “drug-related TEAEs leading to discontinuation” value is 3.5%. Also, under setting [2], the “hyperphosphatemia (TEAE)” value is on record as 65.3% and the “stomatitis (TEAE)” value came out at 49.3%. Under setting [3], the “TEAEs leading to death” value is 13 (7.3%) and the “TEAEs leading to death: Drug-related” value is on record as 1 (0.6%). Further, the “increase of exposure of erdafitinib” value in data set [1] was 50%.

Source of the values: US20250000858A1, “FGFR TYROSINE KINASE INHIBITORS FOR THE TREATMENT OF ADVANCED SOLID TUMORS” (JANSSEN PHARMACEUTICA NV, priority 2021, published 2025).
